Reference: paper PMC10712727, “Safety, Tolerability, and Pharmacokinetics of Senaparib, a Novel PARP1/2 Inhibitor, in Chinese Patients With Advanced Solid Tumors: A Phase I Trial” (The Oncologist, 2023)

Tested on: patients with advanced solid tumors
Assay: Safety: treatment-emergent and senaparib-related adverse events graded per NCI CTCAE v4.03
Assay type: in vivo
Experimental: This phase I, open-label, multicenter, dose-escalation, and dose-expansion study was conducted at three national clinical institutions in China. […] At baseline, all patients enrolled in the dose-escalation phase had to have at least one evaluable lesion, and those in the dose-expansion period had to have at least one measurable lesion, according to Response Evaluation Criteria in Solid Tumors version 1.1 (RECIST v1.1).[16] Entry to the dose-expansion cohort required the presence of a BRCA mutation, with the exception of patients with ovarian carcinoma, fallopian tube carcinoma, and primary peritoneal carcinoma. Full study eligibility criteria are provided in Supplementary Table S1.
Dose escalation was conducted using a modified Fibonacci 3 + 3 method (Supplementary Fig. S1).[17] Patients were administered oral senaparib from a planned starting dose of 2 mg once daily (QD), with preliminary dose escalation to 120 mg via nine dose groups, in order of their entry into the study. At a given dose level, each patient received a single dose of senaparib followed by a 7-day washout period. They then entered a continuous dosing period to confirm the safety and PK profile, in which they received senaparib QD from day 1 to day 21 of each 3-week cycle. Progression to the next higher dose required approval from the Data Safety Monitoring Committee (DSMC) upon review of the safety and PK data of the previous dose. A 50-mg twice-daily (BID) dosing group was added (planned enrollment, n = 6 patients) based on a DSMC review of the safety, PK, and efficacy analysis of the completed QD dose groups in the phase I clinical trial of senaparib dose escalation in Australia (NCT03507543), which commenced prior to the start of this trial.
The dose-expansion period included 3 populations: dose groups in which at least one patient achieved complete response (CR) or partial response (PR) per RECIST v1.1[16] and 1 dose group higher (evaluated for safety), as well as the dose group at the maximum tolerated dose (MTD)/recommended phase II dose (RP2D). Each of these groups included those patients in the respective dose-escalation group plus a planned additional 10 patients (approximately 20 patients in the MTD/RP2D group) with BRCA^mut+ solid tumors (ovarian, breast, or prostate cancer were preferred, and ovarian cancer could be BRCA wild type). Patients received senaparib monotherapy orally QD or BID (50-mg dose only) over each 3-week cycle until disease progression or unacceptable toxicity.
DLTs were predefined toxicities (Supplementary Table S2) recorded over the 7 days following the single-dose administration of senaparib and during the first treatment cycle (day 1-day 21) for each dose group in the dose-escalation period only. The MTD was defined as the maximum dose at which ≤1/6 patients experienced a DLT. Senaparib PK parameters were derived from blood samples collected from patients after the single administration, and at regular intervals during the first cycle of the dose-escalation and dose-expansion periods. Plasma concentrations of senaparib were determined using high-performance liquid chromatography-tandem mass spectrometry. Tumor response was assessed every 6 weeks per RECIST v1.1,[16] recording objective response rate (ORR), disease control rate (DCR), duration of response (DOR), and progression-free survival (PFS) by dose level for all patients and for those harboring BRCA^mut+ tumors.

## O=C(c1cc(Cn2c(=O)[nH]c(=O)c3c(F)cccc32)ccc1F)N1CCN(c2ncccn2)CC1 [Senaparib]
TEAE, 120 mg QD n = 4
  Pain in extremity, Gr≥3: 0 n (%)
  Platelet count decreased, All: 1 (25.0) n (%)
  Platelet count decreased, Gr≥3: 0 n (%)
  Protein in urine, All: 1 (25.0) n (%)
  Protein in urine, Gr≥3: 0 n (%)
  Vomiting, All: 1 (25.0) n (%)
  Vomiting, Gr≥3: 0 n (%)
  WBC decreased, All: 4 (100) n (%)
  WBC decreased, Gr≥3: 0 n (%)
TEAE, Total N = 57
  ALT increased, All: 10 (17.5) n (%)
  ALT increased, Gr≥3: 1 (1.8) n (%)
  AST increased, All: 10 (17.5) n (%)
  AST increased, Gr≥3: 1 (1.8) n (%)
  Abdominal distension, All: 7 (12.3) n (%)
  Abdominal distension, Gr≥3: 0 n (%)
  Anemia (incl. hemoglobin decreased), Gr≥3: 12 (21.1) n (%)
  Appetite decreased, All: 14 (24.6) n (%)
  Appetite decreased, Gr≥3: 0 n (%)
  Asthenia, All: 16 (28.1) n (%)
  Asthenia, Gr≥3: 0 n (%)
  Blood bilirubin increased, All: 8 (14.0) n (%)
  Blood bilirubin increased, Gr≥3: 1 (1.8) n (%)
  Blood creatinine increased, All: 8 (14.0) n (%)
  Blood creatinine increased, Gr≥3: 0 n (%)
  Hypokalemia, All: 6 (10.5) n (%)
  Hypokalemia, Gr≥3: 0 n (%)
  Hyponatremia, All: 7 (12.3) n (%)
  Hyponatremia, Gr≥3: 1 (1.8) n (%)
  Nausea, All: 14 (24.6) n (%)
  Nausea, Gr≥3: 0 n (%)
  Neutrophil count decreased, All: 12 (21.1) n (%)
  Neutrophil count decreased, Gr≥3: 3 (5.3) n (%)
  Pain in extremity, All: 7 (12.3) n (%)
  Pain in extremity, Gr≥3: 2 (3.5) n (%)
  Platelet count decreased, All: 17 (29.8) n (%)
  Platelet count decreased, Gr≥3: 3 (5.3) n (%)
  Protein in urine, All: 6 (10.5) n (%)
  Protein in urine, Gr≥3: 0 n (%)
  Vomiting, All: 12 (21.1) n (%)
  Vomiting, Gr≥3: 2 (3.5) n (%)
  WBC decreased, All: 25 (43.9) n (%)
  WBC decreased, Gr≥3: 2 (3.5) n (%)
Total N = 57
  ALT increased TRAE, All: 10 (17.5) n (%)
  ALT increased TRAE, Gr≥3: 1 (1.8) n (%)
  AST increased TRAE, All: 10 (17.5) n (%)
  AST increased TRAE, Gr≥3: 1 (1.8) n (%)
  Anemia TRAE, Gr≥3: 12 (21.1) n (%)
  Any TEAE, All: 57 (100) n (%)
  Any TEAE, Gr≥3: 27 (47.4) n (%)
  Any TEAE, events: 491 n ev
  Any TEAE, patients: 57 (100) n (%)
  Any TRAE, All: 55 (96.5) n (%)
  Any TRAE, Gr≥3: 19 (33.3) n (%)
  Appetite decreased TRAE, All: 13 (22.8) n (%)
  Appetite decreased TRAE, Gr≥3: 0 n (%)
  Asthenia TRAE, All: 15 (26.3) n (%)
  Asthenia TRAE, Gr≥3: 0 n (%)
  Blood bilirubin increased TRAE, All: 8 (14.0) n (%)
  Blood bilirubin increased TRAE, Gr≥3: 1 (1.8) n (%)
  Blood creatinine increased TRAE, All: 8 (14.0) n (%)
  Blood creatinine increased TRAE, Gr≥3: 0 n (%)
  Hypokalemia TRAE, All: 6 (10.5) n (%)
  Hypokalemia TRAE, Gr≥3: 0 n (%)
  Nausea TRAE, All: 14 (24.6) n (%)
  Nausea TRAE, Gr≥3: 0 n (%)
  Neutrophil count decreased TRAE, All: 12 (21.1) n (%)
  Neutrophil count decreased TRAE, Gr≥3: 3 (5.3) n (%)
  Platelet count decreased TRAE, All: 16 (28.1) n (%)
  Platelet count decreased TRAE, Gr≥3: 3 (5.3) n (%)
  SAEs, events: 12 n ev
  SAEs, patients: 12 (21.1) n (%)
  TEAE Grade ≥3, events: 41 n ev
  TEAE Grade ≥3, patients: 27 (47.4) n (%)
  TEAEs leading to death, events: 2 n ev
  TEAEs leading to death, patients: 2 (3.5) n (%)
  TEAEs leading to dose discontinuation, events: 10 n ev
  TEAEs leading to dose discontinuation, patients: 6 (10.5) n (%)
  TEAEs leading to dose interruption, events: 23 n ev
  TEAEs leading to dose interruption, patients: 15 (26.3) n (%)
  TEAEs leading to dose reduction, events: 10 n ev
  TEAEs leading to dose reduction, patients: 8 (14.0) n (%)
  TRAEs Grade ≥3, events: 29 n ev
  TRAEs Grade ≥3, patients: 19 (33.3) n (%)
  TRAEs, events: 403 n ev
  TRAEs, patients: 55 (96.5) n (%)
  Vomiting TRAE, All: 10 (17.5) n (%)
  Vomiting TRAE, Gr≥3: 1 (1.8) n (%)
  WBC decreased TRAE, All: 25 (43.9) n (%)
  WBC decreased TRAE, Gr≥3: 2 (3.5) n (%)
All patients N = 57
  All other grade ≥3 TEAEs, incidence of each: ≤ 3.5%
  Anemia causing study drug discontinuation, patients: 5.3%
  Grade ≥3 TEAE: anemia, incidence: 21.1%
  Grade ≥3 TEAE: neutrophil count decreased, incidence: 5.3%
  Grade ≥3 TEAE: platelet count decreased, incidence: 5.3%
  Grade ≥3 TEAEs, incidence: 47.4%
  Grade ≥3 TRAE: anemia, incidence: 21.1%
  Overall incidence of grade ≥3 TRAEs: 33.3%
  Patients with senaparib-related adverse events (TRAEs): 96.5%
  Serious adverse events considered related to senaparib, patients: 12.3%
  Serious adverse events, patients: 21.1%
  TEAEs causing dose interruption, patients: 26.3%
  TEAEs causing dose reduction, patients: 14.0%
  TEAEs causing study drug discontinuation, patients: 10.5%
  TEAEs, number of events: 491 events
All patients N = 57, any grade
  Senaparib-related adverse event (TRAE): anemia, incidence: 80.9%
  TEAE: anemia, incidence: 80.9%
  TEAE: asthenia, incidence: 28.1%
  TEAE: platelet count decreased, incidence: 29.8%
  TEAE: white blood cell count (WBC) decreased, incidence: 43.9%
  TRAE: asthenia, incidence: 26.3%
  TRAE: platelet count decreased, incidence: 28.1%
  TRAE: white blood cell count decreased, incidence: 43.9%
All patients N = 57, neither related to senaparib
  TEAEs resulting in death, patients: 3.5%
In vivo
  Patients with most frequent (hematologic) TRAEs of grade ≤3: > 90%
Present study
  Pneumonitis and venous thromboembolic events: neither of which were observed
Present study population
  Secondary hematologic tumors (AML/MDS): no cases
